One series addresses T1, fl wt HBc capsids (Hepatitis B virus genotype D subtype ayw, UniProt P03146).
T1 construct: Full length wild type (fl wt) HBc; made in house; host or cells: E. coli
Nature of the series: Isothermal titration calorimetry (ITC) of peptide dimers with HBc capsids. It counts as binding. The protocol:
Binding stoichiometry, binding affinity and thermodynamic parameters were determined. Table 2 iTC200 instrument's specifications used for the interaction analysis between peptide-dimers and capsids.

Another series concerns the target T2, HBc (Hepatitis B virus genotype D subtype ayw, UniProt P03146).
T2 construct: Full length wild type (fl wt) HBc; made in house; host or cells: E. coli
The experiment in a line: Turbidity assay of HBc solutions at 350 nm. The conditions noted are these: 50 µM HBc solution, RT. As to the method: The concentrations of the P1-, P2- and SLLGRM-dimers were varied between 0.1-100 µM and the concentration of HBc kept constant at 10 µM for the P1- and P2-dimer and at 50 µM for the SLLGRM-dimer. All experiments were performed using a standard photometer (GENESYS™ UV/VIS spectral photometer, Thermo Fisher Scientific, Hillsboro, OR, USA) at RT and at a wavelength of 350 nm using disposable UV transparent cuvettes.

The nature of a further series: physchem. As to conditions: buffer obtained from the dialysis of capsids (buffer A), pH 7.5, aqueous buffer. The protocol: Purified and pooled fractions (ca 8 ml) of capsids were filtered (Rotilabo syringe filter with a pore size of 220 nm, Carl Roth GmbH Co. KG, Karlsruhe, Germany), dialysed against 1.4 L buffer A (40 mM HEPES, 200 mM NaCl, 1 mM MgCl2, 1 mM CaCl2, pH 7.5) using a dialysis membrane tube (Spectra Por Biotech cellulose ester tube, 1 MDa MWCO, Spectrum Laboratories, Inc., Rancho Dominguez, CA, USA). The dialysis was performed at 4 °C under gentle stirring for 16 h overnight. Next day, the dialysed sample was removed from the dialysis tube and concentrated in a centrifuge using a concentrator (30 kDa MWCO Spin-X UF 6 mL, Corning Inc., Corning, NY, USA). Before the determination of the concentration by the Bradford assay (Roti Nanoquant, Carl Roth GmbH Co. KG, Karlsruhe, Germany) the concentrate was filtered (centrifugal filter unit Ultrafree MC, pore size of 100 nm, Merck KGaA, Darmstadt, Germany). The dimeric peptides were dissolved in the buffer obtained from the dialysis of capsids. […] Before filling the ITC cell and syringe, all samples were degassed for 10 minutes at 20 °C (ThermoVac, Malvern Panalytical, Malvern, Worcestershire, UK). Using a MicroCal iTC200 instrument (Malvern Panalytical, Malvern, Worcestershire, UK) solutions of dimeric peptides were titrated into solutions of capsids according to specifications in the Table 2. […]

Series [1] concerns the target T3, HBc capsids (Hepatitis B virus genotype D subtype ayw, UniProt P03146). The experiment in a line: Cryo-EM of HBc capsids in complex with peptide dimers. The series is classed as binding. On the set-up: Full length wild type (fl wt) HBc; made in house; host or cells: E. coli. As to conditions: from EM-maps. The protocol:
In a plasma cleaner (model PDC-002. Harrick Plasma, Ithaca, NY, USA) holey carbon grids (R1.2/1.3, 300 mesh Cu grids, Quantifoil Micro Tools, Jena, Germany) were made hydrophilic by plasma discharging. This was done at a pressure of 29 Pa for 2 minutes using ambient air as plasma medium at "medium power" of the instrument. First, solutions of purified HBc (200 µM) in complex with the P1dC- and the SLLGRM-dimer (each 400 µM) were prepared in buffer A and 3.5 µl aliquots of each sample were applied onto the grids. For plunge freezing of grids ethane was used as medium (liquefied by liquid nitrogen) with the help of a Vitrobot (mark IV, FEI Company, Hillsboro, OR, USA) using filter papers of Whatman (type 541). The Vitrobot had following settings: no wait and drain times, 6 s of blot time, blot force of 25 and a nominal humidity of 100 %. The frozen grids were stored in liquid nitrogen for at least one night before being used for image acquisition.
Cryo-EM was done as previously described (Makbul, Kraft, et al., 2021). In brief: Movies were acquired with the software EPU on a Krios G3 electron microscope equipped with a Falcon III camera (Thermo Fisher Scientific, Hillsboro, OR, USA) in linear mode at a magnification of 75,000 with an accelerating voltage of 300 kV. The total exposure was 40 e-/Å^2 and was fractionated across 20 fractions. […]

Series [2] addresses HBc's interaction to the surface protein L-HBs (Hepatitis B virus genotype D subtype ayw, UniProt P03146). As to conditions: result in words; cited from earlier work.
In series [3] the target is T3, HBc capsids. The conditions noted are these: monomeric peptides; cited from earlier work.
Series [4] deals with HBV production in Hep G2 human hepatoblastoma cell lines. As to conditions: cited from earlier work; for IC50: inhibition of HBV production.
The target in series [5] is full-length wild type HBc (fl wt HBc) (Hepatitis B virus genotype D subtype ayw, UniProt P03146). As to conditions: result in words; cited from earlier work.
In series [6] the target is full length wild type HBV core protein (fl wt HBc), capsids (Hepatitis B virus (genotype D; strain ayw)) (UniProt P03146). Nature of the series: cryo-EM maps of HBc capsids with bound dimer.
The target is the same in series [7]. The experiment in a line: ITC, dimer titrated into fl wt HBc capsids, 20 °C, one site model. (In general: ITC needs no label: the signal is the heat of the interaction.)
Series [8] has the same target. Nature of the series: ITC KD of the dimer against the literature KD of monomeric SLLGRM.

Positions of bridges follow the written chain, without caps; N, C: chain ends. Non-standard residues stand in square brackets, D forms with d. Residues, ends and D or L forms follow the SMILES beside them. Chains are numbered I, II in the order given. AEEA = NCCOCCOCC(=O)O A value given as a limit tells only on which side of the number the result lay.

The solubility is how much of the substance goes into solution per volume. Lower therefore signals a poorly soluble substance. What is called Kd is the equilibrium constant for the complex coming apart. Broadly, the IC50 is the concentration that gives 50% inhibition.

Regarding `CSCC[C@H](NC(=O)[C@H](CCCNC(=N)N)NC(=O)CNC(=O)[C@H](CC(C)C)NC(=O)[C@H](CC(C)C)NC(=O)[C@@H](N)CO)C(=O)NCCOCCOCC(=O)NCCOCCOCC(=O)NCCOCCOCC(=O)NCCOCCOCC(=O)NCCCC[C@@H](NC(=O)COCCOCCNC(=O)COCCOCCNC(=O)COCCOCCNC(=O)COCCOCCNC(=O)[C@H](CCSC)NC(=O)[C@H](CCCNC(=N)N)NC(=O)CNC(=O)[C@H](CC(C)C)NC(=O)[C@H](CC(C)C)NC(=O)[C@@H](N)CO)C(=O)O` [SLLGRM-dimer] (I: H-SLLGRM[AEEA][AEEA][AEEA][AEEA][dK]-OH / II: H-SLLGRM[AEEA][AEEA][AEEA][AEEA]; amide I:11-II:C; N-terminus and C-terminus assumed), on fl wt HBc capsids (KD of dimer versus KD of monomer), the “affinity increase over the respective monomers” value is on record as 26 fold. On fl wt HBc capsids (association constant, ITC at 20 °C, refers to monomeric HBc), the Ka is recorded as 208200 ±31284 (1)/(M). Also, the ΔH on fl wt HBc capsids (binding enthalpy, ITC) was -25.316 ± 2.748 kcal/mol. Further, the ΔS on fl wt HBc capsids (binding entropy, ITC) is listed as -62 ±10 (cal)/(mol × K). This molecule had a N at fl wt HBc capsids (stoichiometry, ITC at 20 °C, one site model, refers to monomeric HBc) of 0.145 ±0.023. Besides, the concentration inducing turbidity result on HBc is “high micromolar concentrations”. This molecule also displayed a solubility in “physchem” of no less than 8 mM. For the same molecule, the “molar ratio to HBc capsids” value on HBc capsids [1] is 0.25.

With ALLGRMKG [21], the “inhibition of HBc's interaction to L-HBs” value in series [2] is on record as “inhibited”.

In the case of GSLLGRMKGA [Pep2], in the series with HBc capsids [3], the Kd is 68 µM. In addition, the “production HB viruses reduced to” value in [4] (at high micromolar concentrations) is “ca. 30%”. In addition, the half-inhibitory concentration (IC50) in series [4] was 0.8 µM.

LLGRMK: in series [5], the “binding to fl wt HBc” value was “bound”.

On to MHRSLLGRMKGA [Pep1], for which, in the series with HBc capsids [3], the Kd is 26 µM.

With SLLGRM, in the series with HBc capsids [3], the Kd is 130 µM.

As to SLLGRM-dimer (peptide), the molar ratio in series [6] worked out at 0.25. Further, in series [7], the Kd is 4.89 µM, the N (stoichiometry) amounted to 0.145, the binding enthalpy (ΔH) was -25300 and the binding entropy (ΔS) was -62. The fold affinity increase over the respective monomer in series [8] was found to be 26 fold.

Turning to SLLGRMKG [23], the IC50 in [4] is 6.4 µM.

SLLGRMKGA [22]: the IC50 in series [4] was 2.4 µM.
